Source: US9751885B2, “Cyclopropanamine compound and use thereof” (Takeda Pharmaceutical Company Limited, priority 2012, dated 2017)
Structures can show the parent of a compound that is named as a salt. Where two headings read alike, the source gives them in different places.

Legend:
[1] = Evaluation of hippocampal distribution in mouse; assay type: in vivo; settings: male ICR mice, 10 mg/kg oral; for concentration at 0.5 h / Kp at 0.5 h: 0.5 hr after administration; for concentration at 1 h / Kp at 1 h: 1 hr after administration
Procedure: Evaluation of Hippocampal Distribution in Mouse
(§1) Male ICR mice (hereinafter mice) were acclimated for at least one week in a rearing facility. The mice were raised in a rearing room with controlled temperature and humidity under a 12:12 hour light-dark cycle, and allowed free ingestion of feed and water.
The compounds were suspended in 0.5% methylcellulose/0.02% citric acid/distilled water and orally administered. All compounds were administered to the mice at a dose of 10 mg/kg (body weight).
Blood samples were collected at 0.5 hr, or 1 hr, or 1.5 hr from compound administration, and the hippocampus was isolated simultaneously. The plasma concentration and hippocampus concentration of each test compound were measured by the LC/MS/MS method, the ratio (hippocampus/plasma concentration ratio) was calculated, and distribution into hippocampus was evaluated.

[2] = system: white blood cell number, red blood cell number, platelet number; experiment: Evaluation of blood cell number in mouse; assay type: in vivo; settings: oral, Day 2 after administration
Procedure: Evaluation of Blood Cell Number in Mouse
as §1
The compounds were suspended in 0.5% methylcellulose/0.02% citric acid/distilled water and orally administered. All compounds were administered to the mice at a dose of 1 mg/kg, 10 mg/kg, 50 mg/kg or 100 mg/kg (body weight). On Day 2 after the administration of the compound, the whole blood was collected.
Using Sysmex XT-1800i (Sysmex Corporation), the white blood cell number, red blood cell number, and platelet number in the collected whole blood per unit volume were measured. The influence of each compound on each blood cell number was determined by comparing the number with the mean of each blood cell number of the mouse without administration of the compound (control group), and the numerical value of each blood cell number of a mouse with the administration of the compound is shown in percentage. percentage (%) of blood cell number of compound administration group as compared to control group=(mean blood cell number of compound administration group mean blood cell number of compound non-administration group)×100

[3] = hippocampus, read-out: hippocampus concentration (mean)
[4] = hippocampus/plasma, read-out: hippocampus/plasma concentration ratio (mean)
[5] = plasma, read-out: plasma concentration (mean)

SMILES	concentration at 0.5 h [1, 3] [ng/g]	Kp at 0.5 h [1, 4]	concentration at 0.5 h [1, 5] [ng/mL]	platelet number, percentage of compound administration group compared to control group, mean ([2]; 10 mg/kg) [%]	red blood cell number, percentage of compound administration group compared to control group, mean ([2]; 10 mg/kg) [%]	white blood cell number, percentage of compound administration group compared to control group, mean ([2]; 10 mg/kg) [%]	platelet number, percentage of compound administration group compared to control group, mean ([2]; 100 mg/kg) [%]	red blood cell number, percentage of compound administration group compared to control group, mean ([2]; 100 mg/kg) [%]	white blood cell number, percentage of compound administration group compared to control group, mean ([2]; 100 mg/kg) [%]	concentration at 1 h [1, 3] [ng/g]	Kp at 1 h [1, 4]	concentration at 1 h [1, 5] [ng/mL]	concentration at 1.5 h ([1]; hippocampus, 1.5 hr after administration, read-out: hippocampus concentration (mean)) [ng/g]	Kp at 1.5 h ([1]; hippocampus/plasma, 1.5 hr after administration, read-out: hippocampus/plasma concentration ratio (mean))	concentration at 1.5 h ([1]; plasma, 1.5 hr after administration, read-out: plasma concentration (mean)) [ng/mL]
Cc1nnc(NC(=O)c2cc([C@@H]3C[C@H]3NC3CCC(F)(F)CC3)ccc2F)s1 (relative stereo) [Example 223, 5-(trans-2-((4,4-difluorocyclohexyl)amino)cyclopropyl)-2-fluoro-N-(5-methyl-1,3,4-thiadiazol-2-yl)benzamide dihydrochloride]	2390	1.69	1400	94.8	101.2	114.5	98.9	100.4	121.7						
O=C(NC1CC(F)(F)C1)c1cccc([C@@H]2C[C@H]2NC2CCC(F)(F)CC2)c1 (relative stereo) [Example 234, N-(3,3-difluorocyclobutyl)-3-(trans-2-((4,4-difluorocyclohexyl)amino)cyclopropyl)benzamide hydrochloride]				98.8	97.7	76.7	88.9	101.2	94.8	276	1.58	175			
O=C(NC1CCOCC1)c1cc([C@@H]2C[C@H]2NCC2CC2)ccc1F (relative stereo) [Example 111, 5-(trans-2-((cyclopropylmethyl)amino)cyclopropyl)-2-fluoro-N-(tetrahydro-2H-pyran-4-yl)benzamide hydrochloride]	1300	1.59	823	101.2	98.7	136.9	98.4	99.1	97.9						
Cc1cc(NC(=O)c2cccc([C@@H]3C[C@H]3NC3CCC3)c2)no1 (relative stereo) [Example 232, 3-(trans-2-(cyclobutylamino)cyclopropyl)-N-(5-methyl-1,2-oxazol-3-yl)benzamide hydrochloride]				102.4	100.4	97.3	93.5	99.3	92.4	572	3.66	154			
Cc1nnc(NC(=O)c2cc([C@@H]3C[C@H]3NC3CCC3)ccc2F)s1 (relative stereo) [Example 183, 5-(trans-2-(cyclobutylamino)cyclopropyl)-2-fluoro-N-(5-methyl-1,3,4-thiadiazol-2-yl)benzamide dihydrochloride]				96.4	98.5	88.1	86.6	97.5	114.9				884	1.35	651
Cc1cc(NC(=O)c2cccc([C@@H]3C[C@H]3NC3CCOCC3)c2)on1 (relative stereo) [Example 235, N-(3-methyl-1,2-oxazol-5-yl)-3-(trans-2-(tetrahydro-2H-pyran-4-ylamino)cyclopropyl)benzamide hydrochloride]	216	1.04	204	99.1	101.1	75.7	96.6	97.8	93.0						
Cc1nnc(NC(=O)c2cccc([C@@H]3C[C@H]3NC3CCC3)c2)s1 (relative stereo) [Example 174, 3-(trans-2-(cyclobutylamino)cyclopropyl)-N-(5-methyl-1,3,4-thiadiazol-2-yl)benzamide hydrochloride]				97.9	95.4	97.4	93.7	100.2	100.6	1280		1250			
Cc1nnc(NC(=O)c2ccc(C)c([C@@H]3C[C@H]3NC3CCOCC3)c2)s1 (relative stereo) [Example 185, 4-methyl-N-(5-methyl-1,3,4-thiadiazol-2-yl)-3-(trans-2-(tetrahydro-2H-pyran-4-ylamino)cyclopropyl)benzamide hydrochloride]	581	0.58	1020	90.4	102.0	88.0	84.7	100.7	129.9						
Cc1cc(NC(=O)c2cccc([C@@H]3C[C@H]3NCC3CC3)c2)n(C)n1 (relative stereo) [Example 107, 3-(trans-2-((cyclopropylmethyl)amino)cyclopropyl)-N-(1,3-dimethyl-1H-pyrazol-5-yl)benzamide dihydrochloride]	242	0.09	2560	95.4	98.4	86.6	91.1	102.2	132.7						
Cn1cc(NC(=O)c2cccc([C@@H]3C[C@H]3NC3CCN(CC(F)(F)F)CC3)c2)cn1 (relative stereo) [Example 171, N-(1-methyl-1H-pyrazol-4-yl)-3-(trans-2-((1-(2,2,2-trifluoroethyl)piperidin-4-yl)amino)cyclopropyl)benzamide trihydrochloride]	266	0.2	1310	114.6	98.5	133.3	104.8	98.9	133.9						
